The source made the active and inactive calls. The calls are words filed in the database; no cut-off is given here.

Assay [1] has as its target T1, Gamma-aminobutyric acid receptor subunit rho-1 (Homo sapiens, UniProt P24046). Briefly: Antagonist activity at human recombinant GABAc rho-1 receptor expressed in Xenopus laevis oocytes assessed as inhibition of GABA-induced current at 100 uM by two electrode voltage clamp technique. The format is functional, cell-based. As to conditions: Oocyte.
For assay [2], the target named is T2, GABA-A receptor; alpha-1/beta-2/gamma-2 (Homo sapiens) (UniProt P14867+P47870+P18507). Briefly: Antagonist activity at human recombinant GABAA alpha1beta2gamma2L receptor expressed in Xenopus laevis oocytes assessed as inhibition of GABA-induced current at 100 uM by two electrode voltage clamp technique. The format is functional, cell-based. The note with it: Oocyte.

Assay [3] has as its target T1, Gamma-aminobutyric acid receptor subunit rho-1. The assay is described as follows: Antagonist activity at human recombinant GABAc rho-1 receptor expressed in Xenopus laevis oocytes assessed as inhibition of GABA-induced current at 600 uM by two electrode voltage clamp technique. It is filed as functional, cell-based. The note with it: Oocyte.
Assay [4] concerns the target T2, GABA-A receptor; alpha-1/beta-2/gamma-2 (Homo sapiens). Briefly: Antagonist activity at human recombinant GABAA alpha1beta2gamma2L receptor expressed in Xenopus laevis oocytes assessed as inhibition of GABA-induced current at 600 uM by two electrode voltage clamp technique. It is filed as functional, cell-based. As to conditions: Oocyte.
For assay [5], the target named is T1, Gamma-aminobutyric acid receptor subunit rho-1. The assay is described as follows: Antagonist activity at human recombinant GABAc rho-1 receptor expressed in Xenopus laevis oocytes assessed as inhibition of GABA-induced current by two electrode voltage clamp technique. It is filed as functional, cell-based, Oocyte. As to conditions: for Kb: Oocyte.
Assay [6] deals with Gamma-aminobutyric acid receptor subunit rho-2 (Homo sapiens, UniProt P28476). The assay is described as follows: Antagonist activity at human recombinant GABAc rho-2 receptor expressed in Xenopus laevis oocytes assessed as inhibition of GABA-induced current by two electrode voltage clamp technique. It is filed as functional, cell-based, Oocyte.
Assay [7] addresses T3, GABA-B receptor (Homo sapiens) (UniProt Q9UBS5+O75899). Briefly: […] activity at human recombinant GABAb 1b/2 receptor expressed in Xenopus laevis oocytes co-expressing GIRK1/4 assessed as inhibition of GABA-induced current by two electrode voltage clamp technique. It is filed as functional, cell-based. As to conditions: Oocyte.
In assay [8] the target is T3, GABA-B receptor (Homo sapiens). Briefly: […] activity at human recombinant GABAb 1b/2 receptor expressed in Xenopus laevis oocytes co-expressing GIRK1/4 assessed as inhibition of GABA-induced current at 10 uM by two electrode voltage clamp technique. It is filed as functional, cell-based. The note with it: Oocyte.
The target is the same in assay [9]. The assay is described as follows: […] activity at human recombinant GABAb 1b/2 receptor expressed in Xenopus laevis oocytes co-expressing GIRK1/4 assessed as inhibition of GABA-induced current at 600 uM by two electrode voltage clamp technique. As to conditions: Oocyte. The format is functional, cell-based.
The target is the same in assay [10]. Briefly: Antagonist activity at human recombinant GABAb 1b/2 receptor expressed in Xenopus laevis oocytes co-expressing GIRK1/4 assessed as inhibition of GABA-induced current at 300 uM by two electrode voltage clamp technique. The note with it: Oocyte. It is filed as functional, cell-based.
The target of assay [11] is T2, GABA-A receptor; alpha-1/beta-2/gamma-2 (Homo sapiens). The assay is described as follows: Antagonist activity at human recombinant GABAA alpha1beta2gamma2L receptor expressed in Xenopus laevis oocytes assessed as inhibition of GABA-induced current at 300 uM by two electrode voltage clamp technique. The note with it: Oocyte. The format is functional, cell-based.
In a further assay the target is GABA-B receptor (Homo sapiens, UniProt O75899+Q9UBS5). The assay is described as follows: Antagonist activity at human recombinant GABAb 1b/2 receptor expressed in Xenopus laevis oocytes co-expressing GIRK1/4 assessed as inhibition of GABA-induced current by two electrode voltage clamp technique. The format is functional, cell-based, Oocyte.
Sequence of GABA-B receptor (Q9UBS5 whole entry): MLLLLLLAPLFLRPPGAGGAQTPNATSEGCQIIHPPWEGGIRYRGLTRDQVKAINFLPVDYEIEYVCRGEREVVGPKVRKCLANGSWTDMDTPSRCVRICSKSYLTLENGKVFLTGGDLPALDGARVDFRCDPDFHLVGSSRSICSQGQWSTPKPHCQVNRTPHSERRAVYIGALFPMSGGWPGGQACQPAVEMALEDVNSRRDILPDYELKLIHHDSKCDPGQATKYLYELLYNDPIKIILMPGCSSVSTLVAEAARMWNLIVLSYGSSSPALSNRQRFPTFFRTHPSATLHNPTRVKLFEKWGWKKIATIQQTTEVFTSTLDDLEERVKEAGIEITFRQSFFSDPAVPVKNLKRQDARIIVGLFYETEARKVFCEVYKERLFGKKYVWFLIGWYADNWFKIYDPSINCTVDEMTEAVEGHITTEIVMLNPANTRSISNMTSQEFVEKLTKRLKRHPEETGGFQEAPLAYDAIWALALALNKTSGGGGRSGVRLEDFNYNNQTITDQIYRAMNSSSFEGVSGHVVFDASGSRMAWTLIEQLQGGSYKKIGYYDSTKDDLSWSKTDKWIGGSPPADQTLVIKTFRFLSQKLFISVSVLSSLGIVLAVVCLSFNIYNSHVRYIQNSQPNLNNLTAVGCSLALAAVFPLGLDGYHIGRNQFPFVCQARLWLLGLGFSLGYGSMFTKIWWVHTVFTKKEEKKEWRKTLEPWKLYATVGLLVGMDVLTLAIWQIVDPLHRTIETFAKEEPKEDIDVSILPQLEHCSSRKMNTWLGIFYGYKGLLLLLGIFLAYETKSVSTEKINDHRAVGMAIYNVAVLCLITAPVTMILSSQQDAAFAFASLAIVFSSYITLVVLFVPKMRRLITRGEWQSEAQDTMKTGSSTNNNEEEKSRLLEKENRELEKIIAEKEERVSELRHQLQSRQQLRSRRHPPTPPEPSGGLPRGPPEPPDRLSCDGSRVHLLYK
Sequence of GABA-B receptor (O75899 whole entry): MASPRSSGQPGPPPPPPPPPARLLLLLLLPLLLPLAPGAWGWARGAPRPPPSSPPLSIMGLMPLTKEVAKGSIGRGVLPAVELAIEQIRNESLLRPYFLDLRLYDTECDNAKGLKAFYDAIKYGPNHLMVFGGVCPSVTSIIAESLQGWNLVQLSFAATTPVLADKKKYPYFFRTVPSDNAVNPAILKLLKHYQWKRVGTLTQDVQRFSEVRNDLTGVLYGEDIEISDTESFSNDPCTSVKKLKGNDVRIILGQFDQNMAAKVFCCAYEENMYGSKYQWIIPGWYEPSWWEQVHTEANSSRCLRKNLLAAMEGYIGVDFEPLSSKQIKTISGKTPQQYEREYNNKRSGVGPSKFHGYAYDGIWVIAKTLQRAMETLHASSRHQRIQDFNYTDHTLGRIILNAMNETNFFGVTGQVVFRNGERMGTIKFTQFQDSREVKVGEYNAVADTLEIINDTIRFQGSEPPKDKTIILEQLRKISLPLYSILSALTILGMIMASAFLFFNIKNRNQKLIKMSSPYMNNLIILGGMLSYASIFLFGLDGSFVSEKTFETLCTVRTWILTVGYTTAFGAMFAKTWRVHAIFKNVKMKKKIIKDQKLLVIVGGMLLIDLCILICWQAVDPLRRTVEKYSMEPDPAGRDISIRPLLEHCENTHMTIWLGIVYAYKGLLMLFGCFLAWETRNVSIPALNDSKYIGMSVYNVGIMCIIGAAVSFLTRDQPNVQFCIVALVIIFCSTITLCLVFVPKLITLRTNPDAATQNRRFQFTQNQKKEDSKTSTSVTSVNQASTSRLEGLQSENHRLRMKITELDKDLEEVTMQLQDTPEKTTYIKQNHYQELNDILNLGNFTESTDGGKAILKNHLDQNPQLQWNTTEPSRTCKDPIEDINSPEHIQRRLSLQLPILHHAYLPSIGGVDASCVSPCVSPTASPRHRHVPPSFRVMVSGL

Sequence of Gamma-aminobutyric acid receptor subunit rho-2 (P28476 whole entry): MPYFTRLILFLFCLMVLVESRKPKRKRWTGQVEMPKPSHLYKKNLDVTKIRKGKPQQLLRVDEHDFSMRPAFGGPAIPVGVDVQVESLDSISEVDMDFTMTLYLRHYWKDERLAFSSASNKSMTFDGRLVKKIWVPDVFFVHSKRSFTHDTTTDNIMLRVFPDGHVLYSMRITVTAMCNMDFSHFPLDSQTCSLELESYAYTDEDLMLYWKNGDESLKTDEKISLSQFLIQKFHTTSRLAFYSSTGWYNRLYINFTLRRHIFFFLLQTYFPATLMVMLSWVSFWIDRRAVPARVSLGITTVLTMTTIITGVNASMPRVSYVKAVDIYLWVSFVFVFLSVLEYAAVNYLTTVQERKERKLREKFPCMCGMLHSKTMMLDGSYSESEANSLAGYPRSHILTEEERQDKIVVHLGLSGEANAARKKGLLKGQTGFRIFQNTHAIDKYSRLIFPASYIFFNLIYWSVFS
T1 sequence (P24046 whole entry): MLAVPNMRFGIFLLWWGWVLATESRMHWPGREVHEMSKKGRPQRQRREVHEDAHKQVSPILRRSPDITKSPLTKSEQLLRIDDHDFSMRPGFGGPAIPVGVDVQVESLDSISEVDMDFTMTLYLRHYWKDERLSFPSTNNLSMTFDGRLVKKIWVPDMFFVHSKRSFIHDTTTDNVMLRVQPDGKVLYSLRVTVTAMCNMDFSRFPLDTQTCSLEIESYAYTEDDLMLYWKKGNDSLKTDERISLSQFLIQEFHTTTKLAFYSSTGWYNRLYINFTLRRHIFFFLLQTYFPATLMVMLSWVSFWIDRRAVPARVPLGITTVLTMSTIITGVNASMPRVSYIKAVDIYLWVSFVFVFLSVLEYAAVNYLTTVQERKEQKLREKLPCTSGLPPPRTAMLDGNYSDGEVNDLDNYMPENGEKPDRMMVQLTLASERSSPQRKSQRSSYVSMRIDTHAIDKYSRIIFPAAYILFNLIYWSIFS

On to `O=P1(O)CCC(CO)C1` (stereo not drawn), for which the inhibition entry in assay [1] and in assay [2] was “inactive” in each case.

For the molecule `NC1CCP(=O)(O)C1` (stereo not drawn), the inhibition entry in assay [3] and in assay [4] was “inactive” in each case.

As for `O=C(O)C1CCP(=O)(O)C1` (stereo not drawn), the inhibition result in assay [1] and in assay [2] was “inactive” throughout.

On to `NCC1CCP(=O)(O)C1` (stereo not drawn), for which the figures for the IC50 in assay [5] and in assay [6] were 19.9 µM and 57.1 µM, respectively. The inhibition result in assay [4] and in [8] was “inactive” each time. Further, the inhibition entry is “Dose-dependent effect” in assay [7] and 45.2% in [9].

As for `CCCCP(=O)(O)C1=CC[C@H](N)C1`, the Kb in assay [5] turned out to be 2.1 µM. Besides, the inhibition in [10] was determined as 22.5%; in [11], 24.2%.

With `CP(=O)(O)C1=CCNCC1`, the results for the IC50 in assay [5] and in assay [6] were 2.22 µM and 22.1 µM, respectively. For the same molecule, the Kb in [6] (Oocyte) was found to be 14.9 µM. For the same molecule, the EC50 on GABA-B receptor was found to be 500 µM.

As to `N=C(N)NC1CCP(=O)(O)C1` (stereo not drawn), the IC50 in assay [5] was 29.7 µM; in assay [6] it was 51.3 µM. In assay [5], the Kb came out at 10 µM. Besides, the inhibition in assay [4] amounted to 29.2%.

Source of the values: ChEMBL document CHEMBL1671823, “Novel Cyclic Phosphinic Acids as GABAC ρ Receptor Antagonists: Design, Synthesis, and Pharmacology” (ACS Med Chem Lett, 2011).
